Results published in paper PMC7377239, “Cardiovascular Effects of Polychlorinated Biphenyls and Their Major Metabolites” (Environmental Health Perspectives, 2020).
Where two headings read alike, the source gives them in different places.

What was measured:
[1] = system: iCell cardiomyocytes (human iPSC-derived cardiomyocytes); test: High-content imaging of cytotoxicity and mitochondrial integrity in iPSC-CMs; assay type: cell-based; settings: Homo sapiens; for viability at 0.01 µM / activity at 0.01 µM / viability at 0.1 µM / activity at 0.1 µM / viability at 1 µM / activity at 1 µM / viability at 10 µM / activity at 10 µM / viability at 100 µM / activity at 100 µM: Cardiomyocyte, 0.00 µM = 100.00; for viability at 0.1 µM / activity at 0.1 µM: 0.10 µM; for minimal effective concentration: iPSC-CM
Outline: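 Cardiomyocytes grown on gelatinized 384-well plates received fresh medium on the experiment day and were then exposed to chemicals at 0.01–100μM. Nuclei and mitochondria were labeled with Hoechst 33342 and MitoTracker™ Orange, then fixed, and imaged on an ImageXpress® Micro Confocal system. Four-parameter logistic concentration–response fits in R, with a one-standard-deviation vehicle cutoff, gave point-of-departure values.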

[2] = system: HUVECs; test: High-content imaging cytotoxicity in HUVECs, 24 h; assay type: cell-based, human; settings: Homo sapiens, HUVEC, 24 h, HUVECs; for viability at 0.01 µM / activity at 0.01 µM / viability at 0.1 µM / activity at 0.1 µM / viability at 1 µM / activity at 1 µM / viability at 10 µM / activity at 10 µM / viability at 100 µM / activity at 100 µM: 0.00 µM = 100.00; for viability at 0.1 µM / activity at 0.1 µM: 0.10 µM; for minimal effective concentration: top concentration 100.00 µM
Outline: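 Confluent HUVEC monolayers, passages 1–5, received test chemicals for 24 h. Cytotoxicity was scored from triple-stain high-content images, with PODs defined by a one-SD deviation from 0.5% DMSO vehicle controls.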

[3] = 24 hr, read-out: huvec.cyto.24hr
[4] = 24 hr, read-out: huvec.mito.24hr
[5] = 24 hr, read-out: huvec.mitoint.24hr
[6] = 24 hr, read-out: huvec.nma.24hr
[7] = 24 hrs, read-out: huvec.tc.24hrs

In the case of Oc1ccc(-c2ccc(Cl)cc2)cc1 [4'-OH PCB3], the viability at 0.01 µM ([1]; 1.5 h, read-out: cm.cam.90min) was 98.1%, the activity at 0.01 µM ([1]; 1.5 h, read-out: cm.mii.90min) was 97% and the activity at 0.01 µM ([1]; 1.5 h, read-out: cm.mito.90min) was 98.1%. It also gave a viability at 0.01 µM ([1]; 1.5 h, read-out: cm.tc.90min) of 98.1%, a viability at 0.1 µM ([1]; 1.5 h, read-out: cm.cam.90min) of 101% and an activity at 0.1 µM ([1]; 1.5 h, read-out: cm.mii.90min) of 100%. The activity at 0.1 µM ([1]; 1.5 h, read-out: cm.mito.90min) was 101%, the viability at 0.1 µM ([1]; 1.5 h, read-out: cm.tc.90min) was 102% and the viability at 1 µM ([1]; 1.5 h, read-out: cm.cam.90min) was 100%. It also gave an activity at 1 µM ([1]; 1.5 h, read-out: cm.mii.90min) of 98.2%, an activity at 1 µM ([1]; 1.5 h, read-out: cm.mito.90min) of 100% and a viability at 1 µM ([1]; 1.5 h, read-out: cm.tc.90min) of 100%. The viability at 10 µM ([1]; 1.5 h, read-out: cm.cam.90min) was 98%, the activity at 10 µM ([1]; 1.5 h, read-out: cm.mii.90min) was 98.5% and the activity at 10 µM ([1]; 1.5 h, read-out: cm.mito.90min) was 97.9%. The viability at 10 µM ([1]; 1.5 h, read-out: cm.tc.90min) was 97.9%, the viability at 100 µM ([1]; 1.5 h, read-out: cm.cam.90min) was 0% and the activity at 100 µM ([1]; 1.5 h, read-out: cm.mii.90min) was 0%. It also gave an activity at 100 µM ([1]; 1.5 h, read-out: cm.mito.90min) of 0%, a viability at 100 µM ([1]; 1.5 h, read-out: cm.tc.90min) of 0.0231% and a viability at 0.01 µM ([1]; 24 h, read-out: cm.cam.24hrs) of 98.2%. It also gave an activity at 0.01 µM ([1]; 24 h, read-out: cm.mii.24hrs) of 96.5%, an activity at 0.01 µM ([1]; 24 h, read-out: cm.mito.24hrs) of 95.9% and a viability at 0.01 µM ([1]; 24 h, read-out: cm.tc.24hrs) of 98.1%. For the same molecule, the viability at 0.1 µM ([1]; 24 h, read-out: cm.cam.24hrs) was 99.2%, the activity at 0.1 µM ([1]; 24 h, read-out: cm.mii.24hrs) was 99.8% and the activity at 0.1 µM ([1]; 24 h, read-out: cm.mito.24hrs) was 97.4%. It also gave a viability at 0.1 µM ([1]; 24 h, read-out: cm.tc.24hrs) of 99%, a viability at 1 µM ([1]; 24 h, read-out: cm.cam.24hrs) of 104% and an activity at 1 µM ([1]; 24 h, read-out: cm.mii.24hrs) of 106%. The activity at 1 µM ([1]; 24 h, read-out: cm.mito.24hrs) was 103%, the viability at 1 µM ([1]; 24 h, read-out: cm.tc.24hrs) was 105% and the viability at 10 µM ([1]; 24 h, read-out: cm.cam.24hrs) was 102%. It also gave an activity at 10 µM ([1]; 24 h, read-out: cm.mii.24hrs) of 93.5%, an activity at 10 µM ([1]; 24 h, read-out: cm.mito.24hrs) of 103% and a viability at 10 µM ([1]; 24 h, read-out: cm.tc.24hrs) of 102%. It also gave a viability at 100 µM ([1]; 24 h, read-out: cm.cam.24hrs) of 0.07%, an activity at 100 µM ([1]; 24 h, read-out: cm.mii.24hrs) of 9.32% and an activity at 100 µM ([1]; 24 h, read-out: cm.mito.24hrs) of 0.05%. It also gave a viability at 100 µM ([1]; 24 h, read-out: cm.tc.24hrs) of 0.07%, a minimal effective concentration ([1]; 1.5 h, read-out: cm.cam.90min POD) of 12.4 µM and a minimal effective concentration ([1]; 1.5 h, read-out: cm.mii.90min POD) of 16 µM. For the same molecule, the minimal effective concentration ([1]; 1.5 h, read-out: cm.mito.90min POD) was 11.5 µM, the minimal effective concentration ([1]; 1.5 h, read-out: cm.tc.90min POD) was 11.3 µM and the minimal effective concentration ([1]; 24 h, read-out: cm.cam.24hrs POD) was 32.3 µM. It also gave a minimal effective concentration ([1]; 24 h, read-out: cm.mii.24hrs POD) of 15.4 µM, a minimal effective concentration ([1]; 24 h, read-out: cm.mito.24hrs POD) of 37.2 µM and a minimal effective concentration ([1]; 24 h, read-out: cm.tc.24hrs POD) of 38.4 µM. The viability at 0.01 µM [2, 3] was 86.4%, the activity at 0.01 µM [2, 4] was 85.6% and the activity at 0.01 µM [2, 5] was 96.8%. It also gave an activity at 0.01 µM [2, 6] of 96.6%, a viability at 0.1 µM [2, 3] of 96.6% and an activity at 0.1 µM [2, 4] of 95.3%. For the same molecule, the activity at 0.1 µM [2, 5] was 115%, the activity at 0.1 µM [2, 6] was 97.7% and the viability at 1 µM [2, 3] was 97.8%. For the same molecule, the activity at 1 µM [2, 4] was 97.4%, the activity at 1 µM [2, 5] was 107% and the activity at 1 µM [2, 6] was 102%. It also gave a viability at 10 µM [2, 3] of 92.7%, an activity at 10 µM [2, 4] of 86.8% and an activity at 10 µM [2, 5] of 95.9%. It also gave an activity at 10 µM [2, 6] of 92.6%, a viability at 100 µM [2, 3] of 73.5% and an activity at 100 µM [2, 4] of 36.5%. It also gave an activity at 100 µM [2, 5] of 11.1%, an activity at 100 µM [2, 6] of 80.7% and a minimal effective concentration ([2]; 24 hr, read-out: huvec.cyto.24hr POD) of 7.01 µM. It also gave a minimal effective concentration ([2]; 24 hr, read-out: huvec.mito.24hr POD) of 3.9 µM, a minimal effective concentration ([2]; 24 hr, read-out: huvec.mitoint.24hr POD) of 11.2 µM and a minimal effective concentration ([2]; 24 hr, read-out: huvec.nma.24hr POD) of 6.91 µM. It also gave a viability at 0.01 µM [2, 7] of 86.4%, a viability at 0.1 µM [2, 7] of 96.6% and a viability at 1 µM [2, 7] of 97.8%. It also gave a viability at 10 µM [2, 7] of 93.3%, a viability at 100 µM [2, 7] of 77.9% and a minimal effective concentration ([2]; 24 hrs, read-out: huvec.tc.24hrs POD) of 7.01 µM.
